The record followed here is EP4806891A1 (Kangbaida (Sichuan) Biotechnology Co., Ltd., priority 2023, dated 2025).

A value given as a limit tells only on which side of the number the result lay.

One assay deals with T1, HEK-Blue-hTLR7 cells (Homo sapiens, UniProt Q9NYK1).
T1 construct: expressed in transfected cells; host or cells: HEK-Blue-hTLR7 cells (HEK293-derived reporter line)
T1 sequence (Q9NYK1 27-1049): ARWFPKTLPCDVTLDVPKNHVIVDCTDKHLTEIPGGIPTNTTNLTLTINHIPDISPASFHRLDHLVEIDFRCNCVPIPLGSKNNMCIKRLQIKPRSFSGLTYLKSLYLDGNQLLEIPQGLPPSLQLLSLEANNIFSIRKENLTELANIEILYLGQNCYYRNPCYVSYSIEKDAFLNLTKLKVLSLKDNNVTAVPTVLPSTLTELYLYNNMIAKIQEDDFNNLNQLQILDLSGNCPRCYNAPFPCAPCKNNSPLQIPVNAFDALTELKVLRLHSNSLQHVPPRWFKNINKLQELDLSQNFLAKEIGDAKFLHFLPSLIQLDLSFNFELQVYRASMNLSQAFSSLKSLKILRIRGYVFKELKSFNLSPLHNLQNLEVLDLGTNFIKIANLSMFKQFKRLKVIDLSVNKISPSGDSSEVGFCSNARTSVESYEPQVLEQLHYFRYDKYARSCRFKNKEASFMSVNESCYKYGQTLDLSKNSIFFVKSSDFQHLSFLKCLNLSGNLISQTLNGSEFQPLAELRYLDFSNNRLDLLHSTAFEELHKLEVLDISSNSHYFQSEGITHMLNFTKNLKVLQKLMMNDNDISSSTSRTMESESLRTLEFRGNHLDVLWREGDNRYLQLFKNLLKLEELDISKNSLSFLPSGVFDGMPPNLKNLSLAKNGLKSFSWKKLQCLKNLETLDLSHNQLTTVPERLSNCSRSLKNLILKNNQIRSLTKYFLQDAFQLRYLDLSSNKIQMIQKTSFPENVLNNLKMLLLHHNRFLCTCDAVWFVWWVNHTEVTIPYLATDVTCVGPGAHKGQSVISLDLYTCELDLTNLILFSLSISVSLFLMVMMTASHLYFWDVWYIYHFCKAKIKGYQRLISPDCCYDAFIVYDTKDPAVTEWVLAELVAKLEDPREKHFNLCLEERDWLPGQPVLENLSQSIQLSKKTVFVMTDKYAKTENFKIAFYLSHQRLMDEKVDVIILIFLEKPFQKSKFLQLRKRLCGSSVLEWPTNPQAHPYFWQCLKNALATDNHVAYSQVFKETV
Put plainly: HEK-Blue-hTLR7 cell inhibition assay. In kind it is cell-based. Particulars: R848 0.8 µM, 16 h, OD 620 nm, read-out: TLR7 IC50. As to the method: (§1) HEK-Blue-hTLR7/8/9 cell inhibition assay
(§2) 1. HEK-Blue-hTLR7/8 cells (1 × 10^4 cells/well) and HEK-Blue-hTLR9 cells (1.5 × 10^4 cells/well) were seeded in a 384-well cell culture plate, with a volume of 30 µL per well. The plate was incubated at 37°C in a 5% CO2 incubator for 4 h. 2. The compound was prepared with DMSO and diluted in DMEM medium to 10 concentrations (1:3 dilution), with final concentrations of 10000, 3333.3, 1111.1, 370.4, 123.5, 41.2, 13.7, 4.6, 1.5, and 0.5 nM; R848 was prepared with DMSO and diluted in DMEM medium, with final concentrations of 0.8 µM (HEK-Blue-hTLR7) and 3 µM (HEK-Blue-hTLR8); ODN2006 was prepared with endotoxin-free water and diluted in DMEM medium, with a final concentration of 1 µM. 3. Cells treated with DMSO were used as the blank control group, while cells treated solely with Resiquimod (R848) were used as the positive control group for HEK-Blue-hTLR7/8, and cells treated solely with ODN2006 were used as the positive control group for HEK-Blue-hTLR9. Cells treated with the test compound together with R848 or ODN2006 were used as the test group. Two parallel wells were set for each group and were placed at 37°C in a 5% CO2 incubator for incubation. 4. After being incubated for 4 h, the 384-well plate of HEK-Blue-hTLR7/8 was taken out from the incubator, and R848 alone or both R848 and the diluted compound were separately added into each well. The plate was placed at 37°C in a 5% CO2 incubator for incubation for 16 h; the 384-well plate of HEK-Blue-hTLR9 was taken out from the incubator, and ODN2006 alone or both ODN2006 and the diluted compound were added separately to each well. The plate was incubated at 37°C in a 5% CO2 incubator for 16 h. 5. After being incubated for 16 h, the 384-well plate was removed from the incubator and centrifuged at 1000 rpm for 1 minute. The optical density value of each well at 620 nm was measured using a multifunctional microplate reader. 6. The cell inhibition rate was calculated as (1-(OD620 test group-OD620 blank group)/(OD620 positive group-OD620 blank group))×100%, and the half maximal inhibitory concentration (IC50) was calculated through curve fitting. Table 1: Activity of the compounds of the present disclosure in HEK-Blue-hTLR7/8/9 cellular assays

In another assay the target is T2, HEK-Blue-hTLR8 cells (Homo sapiens, UniProt Q9NR97).
T2 construct: expressed in transfected cells; host or cells: HEK-Blue-hTLR8 cells (HEK293-derived reporter line)
T2 sequence (Q9NR97 27-1041): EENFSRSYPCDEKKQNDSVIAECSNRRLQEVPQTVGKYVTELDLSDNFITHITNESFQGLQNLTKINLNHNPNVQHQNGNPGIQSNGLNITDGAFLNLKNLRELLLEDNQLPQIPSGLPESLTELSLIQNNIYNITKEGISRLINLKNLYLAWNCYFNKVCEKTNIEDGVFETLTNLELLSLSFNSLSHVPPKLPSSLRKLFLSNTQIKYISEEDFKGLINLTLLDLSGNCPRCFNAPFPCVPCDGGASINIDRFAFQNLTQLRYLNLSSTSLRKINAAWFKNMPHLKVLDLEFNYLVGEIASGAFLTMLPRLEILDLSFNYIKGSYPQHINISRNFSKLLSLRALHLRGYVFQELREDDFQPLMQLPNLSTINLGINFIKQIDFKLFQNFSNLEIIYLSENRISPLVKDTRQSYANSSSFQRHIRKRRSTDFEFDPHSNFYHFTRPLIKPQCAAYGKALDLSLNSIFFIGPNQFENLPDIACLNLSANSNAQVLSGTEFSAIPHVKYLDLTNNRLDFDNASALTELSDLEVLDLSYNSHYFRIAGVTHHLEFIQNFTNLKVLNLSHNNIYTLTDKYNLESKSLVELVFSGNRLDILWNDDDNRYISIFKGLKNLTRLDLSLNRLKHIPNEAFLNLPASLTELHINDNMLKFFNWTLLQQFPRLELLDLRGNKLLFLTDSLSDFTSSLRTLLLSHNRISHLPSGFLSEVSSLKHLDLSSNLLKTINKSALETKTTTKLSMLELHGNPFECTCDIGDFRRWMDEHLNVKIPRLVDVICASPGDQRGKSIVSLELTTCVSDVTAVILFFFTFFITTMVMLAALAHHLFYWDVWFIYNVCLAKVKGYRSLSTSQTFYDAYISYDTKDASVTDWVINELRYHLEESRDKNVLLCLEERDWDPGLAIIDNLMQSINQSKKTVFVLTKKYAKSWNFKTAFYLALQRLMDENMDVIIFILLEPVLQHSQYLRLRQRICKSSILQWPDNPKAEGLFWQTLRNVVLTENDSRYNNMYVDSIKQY
Description: HEK-Blue-hTLR8 cell inhibition assay. Particulars: R848 3 µM, 16 h, OD 620 nm, read-out: TLR8 IC50. In kind it is cell-based. As to the method: as §1, §2

In general, IC50 refers to the concentration that gives 50% inhibition.

`Cc1ccc2c(N3C[C@]4(c5nnc(C6CCN(C)CC6)o5)C[C@]4(C(F)(F)F)C3)ccc(C#N)c2n1` [Compound 73, 2-methyl-5-((1S,5R)-1-(5-(1-methylpiperidin-4-yl)-1,3,4-oxadiazol-2-yl)-5-(trifluoromethyl)-3-azabicyclo[3.1.0]hexan-3-yl)quinoline-8-carbonitrile]: the concentration for half-maximal inhibition (IC50) on HEK-Blue-hTLR7 cells and on HEK-Blue-hTLR8 cells was more than 1000 nM each time.
In the case of `CN1CCC(n2cnc([C@]34CN(c5ccc(C#N)n6ncc(F)c56)C[C@@]3(C(F)(F)F)C4)n2)CC1` [Compound 74, 3-fluoro-4-((1S,5R)-1-(1-(1-methylpiperidin-4-yl)-1H-1,2,4-triazol-3-yl)-5-(trifluoromethyl)-3-azabicyclo[3.1.0]hexan-3-yl)pyrazolo[1,5-a]pyridine-7-carbonitrile], the IC50 on HEK-Blue-hTLR7 cells and on HEK-Blue-hTLR8 cells was less than 100 nM throughout.
In the case of `CN1[C@@H]2CC[C@H]1C[C@@H](c1nnc([C@]34CN(c5ccc(C(F)(F)F)c6ncccc56)C[C@@]3(C(F)(F)F)C4)o1)C2` [Compound 78, 2-((1R,3R,5S)-8-methyl-8-azabicyclo[3.2.1]octan-3-yl)-5-((1S,5R)-5-(trifluoromethyl)-3-(8-(trifluoromethyl)quinolin-5-yl)-3-azabicyclo[3.1.0]hexan-1-yl)-1,3,4-oxadiazole], the IC50 on HEK-Blue-hTLR7 cells and at HEK-Blue-hTLR8 cells was less than 100 nM throughout.
As to `CN(C)C12CCC(c3nnc([C@]45CN(c6ccc(C(F)(F)F)c7ncccc67)C[C@@]4(C(F)(F)F)C5)o3)(CC1)CC2` [Compound 82, N,N-dimethyl-4-(5-((1S,5R)-5-(trifluoromethyl)-3-(8-(trifluoromethyl)quinolin-5-yl)-3-azabicyclo[3.1.0]hexan-1-yl)-1,3,4-oxadiazol-2-yl)bicyclo[2.2.2]octan-1-amine], the IC50 on HEK-Blue-hTLR7 cells and at HEK-Blue-hTLR8 cells was less than 100 nM throughout.
`CN1CCC(c2nnc([C@]34CN(c5ccc(C(F)(F)F)c6nccnc56)C[C@@]3(C(F)(F)F)C4)o2)CC1` [Compound 88, 2-(1-methylpiperidin-4-yl)-5-((1S,5R)-5-(trifluoromethyl)-3-(8-(trifluoromethyl)quinoxalin-5-yl)-3-azabicyclo[3.1.0]hexan-1-yl)-1,3,4-oxadiazole]: the IC50 at HEK-Blue-hTLR7 cells and at HEK-Blue-hTLR8 cells was less than 100 nM in each case.
With `CN1CCC(Oc2nnc([C@]34CN(c5ccc(C#N)n6nccc56)C[C@@]3(C(F)(F)F)C4)o2)CC1` [Compound 89, 4-((1S,5R)-1-(5-((1-methylpiperidin-4-yl)oxy)-1,3,4-oxadiazol-2-yl)-5-(trifluoromethyl)-3-azabicyclo[3.1.0]hexan-3-yl)pyrazolo[1,5-a]pyridine-7-carbonitrile], the IC50 on HEK-Blue-hTLR7 cells and at HEK-Blue-hTLR8 cells was less than 100 nM in each case.
